Measured values reported in patent US11214803B2, “Modulators of YAP1 expression” (Ionis Pharmaceuticals, Inc., priority 2019, dated 2022).
Strand notation (5' to 3'): a small letter for the sugar, then the base; units joined by * are phosphorothioate-linked, units joined directly phosphodiester-linked; [ ] holds rarer units or linkages, { } end groups; capitals alone tell only the bases. k = constrained ethyl (cEt); [5mC] = 5-methylcytosine; d = 2'-deoxy (DNA)

These substances were tested on Yap1 mRNA (assay: Antisense inhibition of human Yap1 in A-431 cells by cEt gapmers, single dose (Example 1, RTS4814)). Conditions: A-431 cells, 5,000 cells per well, free uptake, 2,000 nM modified oligonucleotide, approx. 48 hours, RTS4814, normalized to RIBOGREEN; Table 3.
Format: cell-based
Procedure, shortened: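 Free uptake of 2,000 nM 3-10-3 cEt gapmer (16-mer, full phosphorothioate, 5-methylcytosines) in A-431 cells for ~48 h. Yap1 mRNA quantified by qRT-PCR with set RTS4814, normalized to total RNA (RiboGreen), and expressed as % of untreated control; asterisked values target the amplicon region.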
“715564 (k[5mC]*kA*kA*dG*d[5mC]*dA*d[5mC]*dA*d[5mC]*dA*dA*d[5mC]*dT*k[5mC]*kA*kG; antisense) [Compound 715564]” was tested, and the “YAP1 (% UTC)” value was 75 % UTC. In the case of “715426 (kA*kT*k[5mC]*d[5mC]*dA*dT*d[5mC]*dA*dG*dG*dA*dA*dG*kA*kG*kG; antisense) [Compound 715426]”, the “YAP1 (% UTC)” value is reported as 80 % UTC. With “715573 (kT*kA*kT*dA*dT*dA*dT*dG*dG*dT*dA*dG*dT*k[5mC]*kT*kA; antisense) [Compound 715573]” the “YAP1 (% UTC)” value was 76 % UTC. “715630 (antisense kA*kA*kG*dA*dG*d[5mC]*d[5mC]*dT*dA*d[5mC]*d[5mC]*dT*dG*kA*k[5mC]*kA) [Compound 715630]” was tested, and the “YAP1 (% UTC)” value was 94 % UTC. In the case of “715498 (antisense kT*kG*kA*dA*d[5mC]*d[5mC]*d[5mC]*dT*dT*dG*dA*dA*dA*kA*kT*kA) [Compound 715498]”, the “YAP1 (% UTC)” value is reported as 91 % UTC. In the case of “715414 (kA*kA*k[5mC]*dA*dT*dG*d[5mC]*dT*dG*dT*dG*dG*dA*kG*kT*k[5mC]; antisense) [Compound 715414]”, the “YAP1 (% UTC)” value is reported as 31 % UTC. With “715432 (k[5mC]*kT*k[5mC]*d[5mC]*dA*dT*d[5mC]*d[5mC]*dT*dG*dA*dG*dT*k[5mC]*kA*kT; antisense) [Compound 715432]” the “YAP1 (% UTC)” value was 65 % UTC. With “715615 (antisense k[5mC]*kG*kG*dA*dT*dA*dA*dA*dA*dA*dT*dT*dA*k[5mC]*kT*kT) [Compound 715615]” the “YAP1 (% UTC)” value was 94 % UTC. With “715549 (kG*kA*kA*dG*dT*dT*dG*dT*dT*dG*dA*d[5mC]*d[5mC]*kA*kA*k[5mC]; antisense) [Compound 715549]” the “YAP1 (% UTC)” value was 66 % UTC. With “715528 (kA*kA*kA*d[5mC]*d[5mC]*dT*dG*dA*dT*d[5mC]*d[5mC]*dT*dT*kT*kG*kA; antisense) [Compound 715528]” the “YAP1 (% UTC)” value was 98 % UTC. With “715621 (antisense kT*kA*kA*dA*dA*dA*dA*dT*dA*dA*dG*dA*d[5mC]*kG*kG*kA) [Compound 715621]” the “YAP1 (% UTC)” value was 106 % UTC. “715522 (kA*k[5mC]*kT*d[5mC]*dT*dT*d[5mC]*dT*dT*dT*d[5mC]*d[5mC]*dA*k[5mC]*kT*k[5mC]; antisense) [Compound 715522]” was tested, and the “YAP1 (% UTC)” value was 87 % UTC. In the case of “715516 (k[5mC]*k[5mC]*kT*dA*dT*dG*dA*dG*dT*d[5mC]*dA*dA*d[5mC]*k[5mC]*kT*kG; antisense) [Compound 715516]”, the “YAP1 (% UTC)” value is reported as 77 % UTC. “715489 (antisense kA*kA*k[5mC]*dT*dA*dT*dT*dA*d[5mC]*dT*dT*d[5mC]*dA*kT*kA*kG) [Compound 715489]” was tested, and the “YAP1 (% UTC)” value was 90 % UTC. With “715417 (kG*kA*kG*d[5mC]*dT*d[5mC]*dG*dA*dA*d[5mC]*dA*dT*dG*k[5mC]*kT*kG; antisense) [Compound 715417]” the “YAP1 (% UTC)” value was 104 % UTC. “715579 (k[5mC]*kT*kG*dT*d[5mC]*dT*dG*dG*dA*dA*dT*dA*d[5mC]*kA*k[5mC]*kA; antisense) [Compound 715579]” was tested, and the “YAP1 (% UTC)” value was 100 % UTC. In the case of “715441 (antisense k[5mC]*kT*k[5mC]*dT*dG*dG*dT*dT*d[5mC]*dA*dT*dG*dG*k[5mC]*kA*kA) [Compound 715441]”, the “YAP1 (% UTC)” value is reported as 57 % UTC. In the case of “715408 (kG*k[5mC]*kG*dG*d[5mC]*dT*dT*dG*dA*dA*dG*dA*dA*kG*kG*kA; antisense) [Compound 715408]”, the “YAP1 (% UTC)” value is reported as 60 % UTC. With “715543 (kA*k[5mC]*kT*dA*d[5mC]*dT*dT*dG*dA*dA*dG*dA*dA*k[5mC]*kT*kA; antisense) [Compound 715543]” the “YAP1 (% UTC)” value was 72 % UTC. “715576 (kA*kA*k[5mC]*d[5mC]*dT*dT*dT*dA*d[5mC]*d[5mC]*dA*dA*dA*kA*k[5mC]*kG; antisense) [Compound 715576]” was tested, and the “YAP1 (% UTC)” value was 80 % UTC.

Same assay, conditions: Table 1; A-431 cells, free uptake, 2,000 nM, approximately 48 hours, RTS4814; Yap1 mRNA relative to untreated control cells
“715505 (antisense kA*kT*kT*dG*dG*dT*dT*dT*dA*dT*dT*dG*dT*kA*kA*kA) [Compound 715505]” was tested, and the “YAP1 (% UTC)” value was 84 % UTC. “715421 (kG*kT*kG*dA*dT*dT*dT*dA*dA*dG*dA*dA*dG*kT*kA*kT; antisense) [Compound 715421]” was tested, and the “YAP1 (% UTC)” value was 71 % UTC. With “715430 (kA*kT*k[5mC]*d[5mC]*dT*dG*dA*dG*dT*d[5mC]*dA*dT*dG*kG*k[5mC]*kT; antisense) [Compound 715430]” the “YAP1 (% UTC)” value was 118 % UTC. In the case of “715436 (antisense kT*kG*kG*d[5mC]*dA*dA*dA*dA*d[5mC]*dG*dA*dG*dG*kG*kT*k[5mC]) [Compound 715436]”, the “YAP1 (% UTC)” value is reported as 126 % UTC. In the case of “715475 (antisense kA*kG*k[5mC]*dT*dT*dT*d[5mC]*dT*dT*dT*dA*dT*d[5mC]*kT*kA*kG) [Compound 715475]”, the “YAP1 (% UTC)” value is reported as 103 % UTC. With “715559 (k[5mC]*kT*kG*d[5mC]*d[5mC]*dA*dT*dT*dT*dA*dA*dG*dA*kA*kA*kT; antisense) [Compound 715559]” the “YAP1 (% UTC)” value was 114 % UTC. For “715562 (k[5mC]*kA*k[5mC]*dA*d[5mC]*dA*dA*d[5mC]*dT*d[5mC]*dA*dG*dA*k[5mC]*kA*kG; antisense) [Compound 715562]”, the “YAP1 (% UTC)” value was 77 % UTC. “715535 (k[5mC]*kT*kA*dT*dT*dA*dA*dG*d[5mC]*dT*dG*dT*dT*kT*kA*kA; antisense) [Compound 715535]” was tested, and the “YAP1 (% UTC)” value was 91 % UTC. For “715604 (antisense kT*kA*kG*d[5mC]*dA*d[5mC]*dA*dG*dA*dA*dT*dT*d[5mC]*k[5mC]*k[5mC]*kA) [Compound 715604]”, the “YAP1 (% UTC)” value was 107 % UTC. For “715628 (antisense kG*k[5mC]*k[5mC]*dT*dA*d[5mC]*d[5mC]*dT*dG*dA*d[5mC]*dA*dT*kT*kT*kT) [Compound 715628]”, the “YAP1 (% UTC)” value was 114 % UTC. For “715415 (k[5mC]*kG*kA*dA*d[5mC]*dA*dT*dG*d[5mC]*dT*dG*dT*dG*kG*kA*kG; antisense) [Compound 715415]”, the “YAP1 (% UTC)” value was 24 % UTC. With “715499 (antisense kT*kA*kT*dG*dA*dA*d[5mC]*d[5mC]*d[5mC]*dT*dT*dG*dA*kA*kA*kA) [Compound 715499]” the “YAP1 (% UTC)” value was 126 % UTC. For “715580 (kG*k[5mC]*k[5mC]*dT*dG*dT*d[5mC]*dT*dG*dG*dA*dA*dT*kA*k[5mC]*kA; antisense) [Compound 715580]”, the “YAP1 (% UTC)” value was 101 % UTC. “715466 (antisense k[5mC]*kA*kA*dG*dG*dT*d[5mC]*d[5mC]*dA*d[5mC]*dA*dT*dT*kT*kG*kT) [Compound 715466]” was tested, and the “YAP1 (% UTC)” value was 83 % UTC. With “715409 (k[5mC]*kA*kG*dT*dA*d[5mC]*dT*dG*dG*d[5mC]*d[5mC]*dT*dG*kT*k[5mC]*kG; antisense) [Compound 715409]” the “YAP1 (% UTC)” value was 76 % UTC. For “715439 (antisense kG*kG*kT*dT*d[5mC]*dA*dT*dG*dG*d[5mC]*dA*dA*dA*kA*k[5mC]*kG) [Compound 715439]”, the “YAP1 (% UTC)” value was 99 % UTC. For “715448 (antisense k[5mC]*kT*k[5mC]*dA*dA*dT*dT*d[5mC]*d[5mC]*dT*dG*dA*dG*kA*k[5mC]*kA) [Compound 715448]”, the “YAP1 (% UTC)” value was 97 % UTC. For “715511 (antisense kT*k[5mC]*k[5mC]*dT*dG*dA*d[5mC]*dA*dT*dT*dT*dT*dG*kG*kA*kG) [Compound 715511]”, the “YAP1 (% UTC)” value was 107 % UTC. “715496 (antisense k[5mC]*k[5mC]*k[5mC]*dT*dT*dG*dA*dA*dA*dA*dT*dA*dA*kG*kG*kG) [Compound 715496]” was tested, and the “YAP1 (% UTC)” value was 124 % UTC.

Same assay, conditions: Table 2; A-431 cells, free uptake, 2,000 nM, approximately 48 hours, RTS4814; Yap1 mRNA relative to untreated control cells
“715416 (k[5mC]*kT*k[5mC]*dG*dA*dA*d[5mC]*dA*dT*dG*d[5mC]*dT*dG*kT*kG*kG; antisense) [Compound 715416]” was tested, and the “YAP1 (% UTC)” value was 53 % UTC. For “715476 (antisense kA*kA*kA*dG*d[5mC]*dT*dT*dT*d[5mC]*dT*dT*dT*dA*kT*k[5mC]*kT) [Compound 715476]”, the “YAP1 (% UTC)” value was 84 % UTC. For “715593 (antisense kA*kT*kT*dT*d[5mC]*dT*dT*dT*dG*dG*d[5mC]*dA*dG*kA*kG*kA) [Compound 715593]”, the “YAP1 (% UTC)” value was 60 % UTC. For “715566 (kT*kA*kG*dG*dA*dT*dA*dA*dA*dT*dG*dA*dA*kT*kT*kA; antisense) [Compound 715566]”, the “YAP1 (% UTC)” value was 94 % UTC. “715608 (antisense kA*kA*kT*dT*dG*dT*dA*dT*d[5mC]*d[5mC]*dA*dG*dA*k[5mC]*kA*kT) [Compound 715608]” was tested, and the “YAP1 (% UTC)” value was 100 % UTC. For “715539 (kA*kG*kA*dT*d[5mC]*dT*d[5mC]*dA*d[5mC]*dT*dG*dA*d[5mC]*k[5mC]*kT*kA; antisense) [Compound 715539]”, the “YAP1 (% UTC)” value was 102 % UTC. For “715419 (kG*kA*k[5mC]*d[5mC]*dA*dG*dA*dA*dG*dA*dT*dG*dT*k[5mC]*kT*kT; antisense) [Compound 715419]”, the “YAP1 (% UTC)” value was 107 % UTC. With “715620 (antisense kA*kA*kA*dA*dA*dT*dA*dA*dG*dA*d[5mC]*dG*dG*kA*kT*kA) [Compound 715620]” the “YAP1 (% UTC)” value was 111 % UTC. For “715500 (antisense kA*kA*kG*d[5mC]*d[5mC]*dT*dT*dA*dG*dA*dG*dT*d[5mC]*kA*kA*kT) [Compound 715500]”, the “YAP1 (% UTC)” value was 30 % UTC. With “715425 (kG*kT*k[5mC]*d[5mC]*dT*dG*d[5mC]*d[5mC]*dA*dT*dG*dT*dT*kG*kT*kT; antisense) [Compound 715425]” the “YAP1 (% UTC)” value was 98 % UTC. In the case of “715506 (antisense kA*kA*kA*dT*dT*dG*dG*dT*dT*dT*dA*dT*dT*kG*kT*kA) [Compound 715506]”, the “YAP1 (% UTC)” value is reported as 112 % UTC. With “715614 (antisense kA*kA*kA*dT*dT*dA*d[5mC]*dT*dT*dT*dA*dA*dG*k[5mC]*k[5mC]*kA) [Compound 715614]” the “YAP1 (% UTC)” value was 110 % UTC. With “715527 (kT*k[5mC]*kA*d[5mC]*dT*dT*dA*d[5mC]*dT*dT*dT*dA*dA*kG*kA*kA; antisense) [Compound 715527]” the “YAP1 (% UTC)” value was 111 % UTC. In the case of “715605 (antisense k[5mC]*kA*kT*dA*dG*d[5mC]*dA*d[5mC]*dA*dG*dA*dA*dT*kT*k[5mC]*k[5mC]) [Compound 715605]”, the “YAP1 (% UTC)” value is reported as 112 % UTC.
